For data set [1] the following is noted: reported by Chilcote and Sinha, ARVO 2012; cited from earlier work.
For data set [2] the following is noted: literature / authorised label; cited from earlier work.
Data set [3] is described as follows: BCS classification (ICH M9). The class given is physicochemical. The note with it: ICH guideline M9. The text has this:
BCS class IV drugs are considered to be poorly soluble and poorly permeable meaning that they are likely to have poor oral bioavailability and/or the oral absorption may be so low that they cannot be given by the oral route. Due to their numerous unfavourable characteristics, BCS class IV drugs are particularly challenging to formulate as oral dosage forms and in particular as ODTs. Indeed, ODTs of BCS class IV drugs are not generally known in the art.

Data set [4] is described as follows: Phase 1 trial: single-dose 3-way crossover pharmacokinetic study, ODT vs film-coated tablets. Type of data set: in vivo, human. The conditions noted are these: single doses of 500 mg or 600 mg in ODT or FCT, healthy adult participants. As for the experimental part:
This study was an open label, randomized, single-dose, 3-way crossover pharmacokinetic study.
Thirty-six (36) healthy, adult, male and female subjects were enrolled.
The film coated tablets were those used in the phase 2 study described herein (NCT04208412).
There was a washout period of at least 4 days between the dose in Period 1 and Period 2 and the dose in Period 2 and Period 3.
An analysis of variance (ANOVA) was performed on the natural log (ln) transformed AUC0-t, AUC0-inf, AUC% extrap and Cmax, using the appropriate statistical procedure.

For data set [5] the following is noted: swallowable tablet, NCT04208412; cited from earlier work.
Data set [6] in a line: Plasma concentration after oral administration. Type of data set: in vivo. The note with it: following administration of a dosage amount of at least about 60 mg.

On to `N=C(N)c1ccc(CNC(=O)c2cnn(Cc3ccccc3)c2)cc1` [ASP-440], for which, in data set [1], the oral availability entry is reported as “poor oral availability”.
Regarding `N#Cc1cccc([C@@H](NCC2CC2)c2ccc(F)c(NC(=O)c3cc(C(F)(F)F)nn3-c3cccc(CN)c3)c2)c1` [Berotralstat, reference compound], in data set [2], the reported adverse reactions entry was “higher doses were associated with more gastrointestinal adverse effects”.
Take `COCc1nn(Cc2ccc(Cn3ccccc3=O)cc2)cc1C(=O)NCc1nccc(OC)c1F` [KVD900, N-[(3-fluoro-4-methoxypyridin-2-yl)methyl]-3-(methoxymethyl)-1-({4-[(2-oxopyridin-1-yl)methyl]phenyl}methyl) pyrazole-4-carboxamide]: in data set [3], the BCS classification result was “BCS class IV”. In addition, the safety and tolerability result in data set [4] is reported as “well tolerated”. The “phase 2 efficacy and safety endpoints” value in data set [5] is “met all of its phase 2 efficacy and safety endpoints”. Besides, the “concentration of KVD900 in plasma” value in data set [6] is recorded as “at least 500 ng/ml”.
Ecallantide: the reported adverse reactions entry in data set [2] was “risks of anaphylactic reactions”.

B1: lanadelumab: recombinant fully human IgG1 kappa light chain monoclonal antibody, plasma kallikrein inhibitor (antibody, chains of the INN, looked up, V domains shown)
VH: EVQLLESGGGLVQPGGSLRLSCAASGFTFSHYIMMWVRQAPGKGLEWVSGIYSSGGITVYADSVKGRFTISRDNSKNTLYLQMNSLRAEDTAVYYCAYRRIGVPRRDEFDIWGQGTMVTVSS
VL: DIQMTQSPSTLSASVGDRVTITCRASQSISSWLAWYQQKPGKAPKLLIYKASTLESGVPSRFSGSGSGTEFTLTISSLQPDDFATYYCQQYNTYWTFGQGTKVEIK
For the molecule B1, the reported adverse reactions result in data set [2] is “hypersensitivity, injection site pain, injection site erythema, and injection site bruising”.

These data come from patent US20250281397A1, “FORMULATIONS OF A PLASMA KALLIKREIN INHIBITOR” (KALVISTA PHARMACEUTICALS LIMITED, priority 2022, published 2025).
